# Values quoted from earlier work as cited in US20040157932A1, “Supplements and foods comprising oleylethanolamide” (Natural ASA,, priority 2002, published 2004).
# Experiments:
# [1] = system: FAAH
# [2] = system: cannabinoid receptors
# [3] = rats
# [4] = system: human melanoma, colorectal and breast cancer cells; settings: in vitro
# [5] = system: CD-4 and CD-8 lymphocyte subpopulations; white blood cells
# [6] = diet with 0.5 percent CLA
# [7] = CLA in animal feed, birds and mammals
# [8] = system: rat mammary tumorigenesis; settings: administration of CLA
compound,measurement,setting,value
CCCCCCC(C)OC(=O)CC(=O)CBr (stereo not shown) [2-octyl y-gamma.-bromoacetoacetate],FAAH inhibition,[1],potent
"CCCCCCCC/C=C\CCCCCCCC(=O)NCCO [OEA, oleylethanolamide]",activation of cannabinoid receptors,[2],does not activate
same,desire for food,[3]; OEA in diet,reduced desire for food
same,weight gain,[3]; OEA in diet,decreased weight gain
same,effect on the nervous system,[3]; in contrast to currently available weight loss drugs,not effecting the nervous system
conjugated linoleic acid [CLA],"cytotoxicity against human melanoma, colorectal and breast cancer cells",[4],strong cytotoxic agent
same,preserving white blood cells,[5]; CLA in concentrations of about 0.1 to 1.0 percent,effective adjuvant
same,CD-4 and CD-8 lymphocyte subpopulations,"[5]; oral or parenteral administration, free acid or salt form",elevation
same,body weight,[6],no increase
same,fat content,"[6]; pigs, mice, humans",significant drop
same,protein mass,"[6]; pigs, mice, humans",concomitant increase
same,efficiency of feed conversion,[7],increased the efficiency of feed conversion
same,rat mammary tumorigenesis,[8],inhibits
